Experimental data as given in ChEMBL document CHEMBL4004781, “Synthesis, biological evaluation, docking study and ulcerogenicity profiling of some novel quinoline-2-carboxamides as dual COXs/LOX inhibitors endowed with anti-inflammatory activity” (Eur J Med Chem, 2017).

Columns and labels:
[1] = molecular target: T1, Prostaglandin G/H synthase 1 (Ovis aries, UniProt P05979); test: Inhibition of ovine COX1 using arachidonic acid as substrate assessed as decrease in PGF2 production preincubated for 15 mins followed by substrate addition measured after 2 mins by enzyme immunoassay
T1 sequence (P05979 whole entry): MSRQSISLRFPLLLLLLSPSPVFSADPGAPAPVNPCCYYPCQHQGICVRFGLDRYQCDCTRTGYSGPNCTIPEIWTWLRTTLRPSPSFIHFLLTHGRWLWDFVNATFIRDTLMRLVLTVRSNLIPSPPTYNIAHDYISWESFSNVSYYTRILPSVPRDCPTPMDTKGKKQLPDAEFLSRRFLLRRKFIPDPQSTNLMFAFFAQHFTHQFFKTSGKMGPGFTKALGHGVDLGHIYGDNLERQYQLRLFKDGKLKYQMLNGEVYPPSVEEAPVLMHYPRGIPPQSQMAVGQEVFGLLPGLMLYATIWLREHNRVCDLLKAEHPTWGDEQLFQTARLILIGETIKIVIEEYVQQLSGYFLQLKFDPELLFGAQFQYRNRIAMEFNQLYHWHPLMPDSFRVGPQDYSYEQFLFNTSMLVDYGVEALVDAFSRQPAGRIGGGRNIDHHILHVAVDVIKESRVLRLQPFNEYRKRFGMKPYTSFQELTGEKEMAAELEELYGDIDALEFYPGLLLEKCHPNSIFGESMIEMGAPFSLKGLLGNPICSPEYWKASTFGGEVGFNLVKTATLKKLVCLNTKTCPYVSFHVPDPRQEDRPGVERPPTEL

[2] = molecular target: T2, Prostaglandin G/H synthase 2 (Homo sapiens, UniProt P35354); test: Inhibition of recombinant human COX2 using arachidonic acid as substrate assessed as decrease in PGF2 production preincubated for 15 mins followed by substrate addition measured after 2 mins by enzyme immunoassay
T2 sequence (P35354 whole entry): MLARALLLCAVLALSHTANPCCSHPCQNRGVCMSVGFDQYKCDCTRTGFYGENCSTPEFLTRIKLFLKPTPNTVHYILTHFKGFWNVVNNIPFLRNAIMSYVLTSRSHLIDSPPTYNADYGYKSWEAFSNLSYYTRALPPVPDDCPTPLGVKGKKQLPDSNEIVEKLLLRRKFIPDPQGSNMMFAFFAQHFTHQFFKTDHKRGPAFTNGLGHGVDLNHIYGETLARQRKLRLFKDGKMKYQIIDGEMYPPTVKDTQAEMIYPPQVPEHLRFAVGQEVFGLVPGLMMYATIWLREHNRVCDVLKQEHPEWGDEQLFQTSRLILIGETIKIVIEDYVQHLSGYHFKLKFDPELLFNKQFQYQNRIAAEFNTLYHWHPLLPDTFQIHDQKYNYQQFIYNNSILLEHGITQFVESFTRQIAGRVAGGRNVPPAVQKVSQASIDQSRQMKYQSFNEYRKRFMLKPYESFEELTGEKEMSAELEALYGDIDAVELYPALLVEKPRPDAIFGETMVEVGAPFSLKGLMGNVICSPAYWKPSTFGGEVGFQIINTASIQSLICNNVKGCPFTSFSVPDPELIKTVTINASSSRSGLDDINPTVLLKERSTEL

[3] = Selectivity ratio of IC50 for ovine COX1 to IC50 for recombinant human COX2
[4] = Inhibition of soybean 15-LOX assessed as decrease in leukotriene formation by enzyme immunoassay; set-up: species or system Glycine max
Rattus norvegicus [5] = test: Antiinflammatory activity in albino rat assessed as inhibition of carrageenan-induced paw edema at 28 umol/kg, ip administered 1 hr post carrageenan challenge measured at 1 hr post compound dosing relative to control; format: functional
Rattus norvegicus [6] = test: Antiinflammatory activity in albino rat assessed as inhibition of carrageenan-induced paw edema at 28 umol/kg, ip administered 1 hr post carrageenan challenge measured at 3 hrs post compound dosing relative to control; format: functional
Rattus norvegicus [7] = test: Antiinflammatory activity in albino rat assessed as inhibition of carrageenan-induced paw edema at 28 umol/kg, ip administered 1 hr post carrageenan challenge measured at 5 hrs post compound dosing relative to control; format: functional
[8] = Inhibition of soybean 15-LOX; set-up: species or system Glycine max
Rattus norvegicus [9] = test: Ulcerogenic effect in albino rat assessed as ulcer index at 50 umol/kg, po qd administered for 3 days measured 1 hr post last dose; format: toxicity, organism-based; settings: in vivo
Rattus norvegicus [10] = test: Ulcerogenic effect in albino rat assessed as congestion of blood vessels at 50 umol/kg, po qd administered for 3 days measured 1 hr post last dose by hematoxylin/eosin staining-based light microscopic method; format: toxicity, organism-based; settings: in vivo
Rattus norvegicus [11] = test: Ulcerogenic effect in albino rat assessed as effect on architecture of gastric mucosa at 50 umol/kg, po qd administered for 3 days measured 1 hr post last dose by hematoxylin/eosin staining-based light microscopic method; format: toxicity, organism-based; settings: in vivo
Rattus norvegicus [12] = test: Ulcerogenic effect in albino rat assessed as effect on architecture of gastric mucosal surface at 50 umol/kg, po qd administered for 3 days measured 1 hr post last dose by scanning electron microscopic method; format: toxicity, organism-based; settings: in vivo
Rattus norvegicus [13] = test: Ulcerogenic effect in albino rat assessed as loss of demarcation between surface mucus cells at 50 umol/kg, po qd administered for 3 days measured 1 hr post last dose by scanning electron microscopic method; format: toxicity, organism-based; settings: in vivo
Rattus norvegicus [14] = test: Ulcerogenic effect in albino rat assessed as lymphocytic infiltration at 50 umol/kg, po qd administered for 3 days measured 1 hr post last dose by hematoxylin/eosin staining-based light microscopic method; format: toxicity, organism-based; settings: in vivo
Rattus norvegicus [15] = test: Ulcerogenic effect in albino rat assessed as maceration of gastric mucosa at 50 umol/kg, po qd administered for 3 days measured 1 hr post last dose by hematoxylin/eosin staining-based light microscopic method; format: toxicity, organism-based; settings: in vivo
Rattus norvegicus [16] = test: Ulcerogenic effect in albino rat assessed as submucosal edema at 50 umol/kg, po qd administered for 3 days measured 1 hr post last dose by hematoxylin/eosin staining-based light microscopic method; format: toxicity, organism-based; settings: in vivo
Rattus norvegicus [17] = test: Ulcerogenic effect in albino rat assessed as exfoliation of superficial epithelial cells at 50 umol/kg, po qd administered for 3 days measured 1 hr post last dose by hematoxylin/eosin staining-based light microscopic method; format: toxicity, organism-based; settings: in vivo
Rattus norvegicus [18] = test: Ulcerogenic effect in albino rat assessed as induction of necrosis in gastric mucosal cells at 50 umol/kg, po qd administered for 3 days measured 1 hr post last dose by hematoxylin/eosin staining-based light microscopic method; format: toxicity, organism-based; settings: in vivo
Rattus norvegicus [19] = test: Ulcerogenic effect in albino rat assessed as complete shedding of surface mucous cells leaving underlying gastric pit walls and openings with honeycomb shape at 50 umol/kg, po qd administered for 3 days measured 1 hr post last dose by scanning electron microscopic method; format: toxicity, organism-based; settings: in vivo

SMILES	IC50 [1]	IC50 [2]	IC50 [4]	Ratio IC50 [3]	inhibition in vivo at 28 µmol/kg (Rattus norvegicus [5])	inhibition in vivo at 28 µmol/kg (Rattus norvegicus [6])	inhibition in vivo at 28 µmol/kg (Rattus norvegicus [7])	also measured
Cc1c(C(=O)N2CCCCC2)nc2ccc(Cl)cc2c1O	12.4 µM	3.14 µM	10.4 µM	3.94	30.1%	35.4%	36.8%	–
Cc1c(C(=O)NCCc2ccc(N3CCCCC3)cc2)nc2ccc(Cl)cc2c1O	10.4 µM	2.11 µM	7.32 µM	4.92	39.8%	46.9%	48.2%	–
CCOC(=O)C(Cc1ccccc1)NC(=O)c1nc2ccc(Cl)cc2c(O)c1C (stereo unspecified)	9.6 µM	1.91 µM	7.14 µM	5.02	40.5%	47.3%	49%	–
Cc1c(C(=O)NCCc2ccc(N(C)C)cc2)nc2ccc(Cl)cc2c1O	8.3 µM	1.67 µM	–	4.97	39.1%	46.9%	48.6%	–
CC(C)(C)Nc1c(-c2cc3ccccc3nc2Cl)nc2sccn12	–	–	–	–	–	–	–	IC50 [8]: 11.5 µM
Cc1c(C(=O)NCc2nc3ccccc3[nH]2)nc2ccc(Cl)cc2c1O	7.9 µM	1.21 µM	6.18 µM	6.52	45.2%	50.1%	59.4%	UI (Rattus norvegicus [9]): 2.66; Activity (Rattus norvegicus [10]): Toxic; Activity (Rattus norvegicus [11]): Non-Toxic; Activity (Rattus norvegicus [12]): Non-Toxic; Activity (Rattus norvegicus [13]): Toxic
Cc1c(C(=O)N(C)c2ccccc2)nc2ccc(Cl)cc2c1O	8.3 µM	1.74 µM	–	4.77	38.9%	45.6%	47%	–
Cc1c(C(=O)N2CCN(c3ccccc3)CC2)nc2ccc(Cl)cc2c1O	8.6 µM	1.13 µM	5.91 µM	7.61	49.5%	61%	65%	UI (Rattus norvegicus [9]): 2.5; Activity (Rattus norvegicus [14]): Toxic; Activity (Rattus norvegicus [11]): Non-Toxic; Activity (Rattus norvegicus [12]): Non-Toxic; Activity (Rattus norvegicus [13]): Toxic
Cc1c(C(=O)NC2CCCCC2)nc2ccc(Cl)cc2c1O	7.8 µM	1.41 µM	6.54 µM	5.53	43.5%	50.1%	52%	–
Cc1c(C(=O)NC(CO)Cc2ccccc2)nc2ccc(Cl)cc2c1O (stereo unspecified)	11.4 µM	2.78 µM	–	4.1	34.2%	39.5%	41.3%	–
COc1ccc2c(c1)c(CC(=O)O)c(C)n2C(=O)c1ccc(Cl)cc1 [INDOMETHACIN]	–	–	–	–	–	–	–	UI (Rattus norvegicus [9]): 17.23; Activity (Rattus norvegicus [15]): Toxic; Activity (Rattus norvegicus [10]): Toxic; Activity (Rattus norvegicus [14]): Toxic; Activity (Rattus norvegicus [16]): Toxic; Activity (Rattus norvegicus [17]): Toxic; Activity (Rattus norvegicus [18]): Toxic; Activity (Rattus norvegicus [19]): Toxic
Cc1ccc(-c2cc(C(F)(F)F)nn2-c2ccc(S(N)(=O)=O)cc2)cc1 [CELECOXIB]	–	–	–	–	57.1%	68.4%	71.2%	–

Further lines, with some results ahead:

IC50 [1]	IC50 [2]	IC50 [4]	SMILES	Ratio IC50 [3]	inhibition in vivo at 28 µmol/kg (Rattus norvegicus [5])	inhibition in vivo at 28 µmol/kg (Rattus norvegicus [6])	inhibition in vivo at 28 µmol/kg (Rattus norvegicus [7])	also measured
13.1 µM	3.54 µM	–	Cc1c(C(=O)NC2CCCN(Cc3ccccc3)C2)nc2ccc(Cl)cc2c1O (stereo unspecified)	3.7	31.4%	35.9%	37.8%	–
7.5 µM	1.69 µM	6.74 µM	Cc1c(C(=O)NCCc2ccc(N3CCCC3)cc2)nc2ccc(Cl)cc2c1O	4.43	41%	48%	49.9%	–
9.8 µM	1.91 µM	–	Cc1c(C(=O)NCCc2ccc(N3CCCC3C)cc2)nc2ccc(Cl)cc2c1O (stereo unspecified)	5.1	41%	48%	49.7%	–
–	–	5.64 µM	Cc1ccc(Cl)c(Nc2ccccc2C(=O)O)c1Cl [MECLOFENAMATE SODIUM]	–	–	–	–	–
10.7 µM	2.81 µM	8.43 µM	Cc1c(C(=O)N2CCNCC2)nc2ccc(Cl)cc2c1O	3.8	31.1%	37.5%	38%	–
11.4 µM	2.54 µM	9.87 µM	Cc1c(C(=O)NCCc2ccccc2)nc2ccc(Cl)cc2c1O	4.48	35.8%	40.9%	43.4%	–
